Compound | melting point
CC1=C(C(=O)OC(C)C)C(c2cccc([N+](=O)[O-])c2)C(C(=O)C(C)S(=O)(=O)NC(C)C)=C(C)N1 (stereo unspecified) | 117 to 120 °C
Cn1nnnc1-c1cnc2ccc(F)cc2c1O | > 300 °C
CCOCc1nc2c(N)nc3cc(OCc4ccc(F)cc4)ccc3c2n1CC(C)(C)NS(C)(=O)=O | 251 to 253 °C
FC(F)(F)COc1ccnc(Oc2ccc(CCNc3ncnc4nccnc34)cc2)c1 | 166 °C
CCOC(=O)c1cnc(Nc2cc(OC)ccc2OC)[nH]c1=O | 221 to 223 °C
CCOC(=O)c1sc(SC(C)C)c2c1CCC(N=[N+]=[N-])C2=O (stereo unspecified) | 118 to 119 °C
N#Cc1nc(-c2ccc(O)cc2)cs1 | 186 to 197 °C
COC(=O)c1ccc(OC)nc1F | 81 to 82 °C
O=C1CC2SCCCN12 (stereo unspecified) | 145 to 147 °C
COc1ccc(OCC2(CI)CC2)cc1 | 53 to 54 °C
COC(=O)C(C)(C)OCc1cc2cc(C(F)(F)F)ccc2n1S(=O)(=O)c1ccc2c(c1)OCCO2 | 128 to 130 °C
Brc1ccc(-c2nc(COc3ccc(CCCn4ccnc4)cc3)co2)o1 | 115 to 116 °C
O=C(O)C1=CCC2C1C(=O)C2(Cl)Cl (stereo unspecified) | 157 to 160 °C
CCN(c1ccc(C)c2cc(-c3ncc(CO)s3)[nH]c12)S(=O)(=O)c1cccs1 | 166 to 167 °C
COc1ccc(-c2nc(N3CCCC3)c3c(C)c(C#N)sc3n2)cc1 | 176 to 178 °C
CC1(C)CC(N(c2nc(Cl)nc(N(C3CC(C)(C)N(O)C(C)(C)C3)C3CC(C)(C)N(O)C(C)(C)C3)n2)C2CC(C)(C)N(O)C(C)(C)C2)CC(C)(C)N1O | 252 to 256 °C
CCOC(=O)c1cc2c(C)c(-c3ccc(Cl)cc3)c(=O)oc2nc1C(=O)OCC | 179 to 181 °C
COC(=O)C1=CC(NC(=O)OC(C)(C)C)CO1 (stereo unspecified) | 94 to 96 °C
CC(=O)N1CCN(c2ccc(O)cc2Br)CC1 | 212 to 214 °C
N#CC(=O)c1cccc(Cl)c1 | 146 to 148 °C
CNC1(C)CN(c2nc3c(cc2F)c(=O)c(C(=O)O)cn3C2CC2)C1 | 283 to 286 °C
CC(C)(O)COC1CCNCC1 | 80 to 82 °C
CC(=O)c1cc(S(N)(=O)=O)ccc1F | 172 to 173 °C
CCCCCCCCCCCCCCc1ccc(O)c(C(C)=O)c1 | 38.5 to 39.5 °C
CN1C[C@@H]2CN(c3ccc4nc(Br)cn4n3)C[C@@H]2C1 | 144 to 146 °C
CCOC(=O)c1cc(CC#N)c(C)s1 | 55 to 57 °C
CCCn1c(=O)c2c(nc(/C=C/c3ccc(OC(C)=O)c(OC(C)=O)c3)n2C)n(CCC)c1=O | 229 to 230 °C
Nc1c(-c2cc(Cl)ccc2O)c2ccc(C(F)(F)F)cc2[nH]c1=O | 225 to 227 °C
COCCOc1cc2ncnc(Nc3cc(O)c(Cl)cc3F)c2cc1OC | > 250 °C
O=c1oc(=O)c2ccsc2c2sccc12 | 260 to 263 °C

Results, then the compound that gave them:

melting point | Compound
140 °C | O=C1CCCCN1CCCOC1c2ccccc2C(=O)N1c1ccc2ccc(Cl)nc2n1 (stereo unspecified)
132 to 135 °C | O=C(NS(=O)(=O)C=Cc1ccccc1)N1CCC(CCCc2ccc(O)cc2)CC1
252 to 254 °C | O=C(Nc1ccc(C(=O)N2Cc3ccccc3Cc3ccccc32)cc1)c1sc2ccccc2c1Cl
53 to 53.1 °C | CCCCCCCCCOC(=O)Oc1ccc(-c2ccc(C#N)cc2)cc1
55 to 57 °C | CC(=O)Oc1ccc(CCCC2CC(=O)OC(=O)C2)cc1
139 to 140 °C | O=C(c1ccccc1)N(CCCCn1ccnc1)C1=Nc2cccc3cccc1c23
113 to 115 °C | COc1cccc(-c2cn(C)cc(-c3cccc(C(F)(F)F)c3)c2=O)c1
> 300 °C | O=C1CC2(C(=O)N1)C(=O)N1c3ccccc3Sc3cccc2c31 (stereo unspecified)
84 to 85 °C | COC(=O)[C@@H](O)[C@H](CC(C)C)NC(=O)OC(C)(C)C
79 °C | CC1(C)O[C@H]2[C@H](OCc3ccccc3)O[C@H](C(=O)O)[C@H]2O1
118 to 128 °C | CC#CCOc1ccc(S(=O)(=O)NCCC(=O)NO)cc1
241 °C | N#Cc1ccc(Cn2c(=O)c(C#N)c(N3CCN(C(=O)c4cccs4)CC3)c3cccnc32)cc1
165 to 167 °C | Cc1cc(-n2ccc(OCc3ccccc3)cc2=O)sc1C(=O)NCc1cccnc1
164 to 166 °C | O=C(CSc1c(O)cc(-c2ccccc2)oc1=O)c1ccccc1
289 to 291 °C | COc1ccc(C(=O)C2=C(O)C(=O)N(c3nncs3)C2c2ccc(C(C)(C)C)cc2)cc1 (stereo unspecified)
84 to 88 °C | CC(C)(C)OC(=O)NCCON=C(c1ccccc1)c1cc2ccncc2[nH]1
52 to 53 °C | COc1c(F)cccc1-c1cnn2ccc(N3CCN(C(=O)OC(C)C)CC3)nc12
168 to 170 °C | S=c1[nH]nc(Cc2ccccc2Nc2c(Cl)cccc2Cl)o1
111 to 112 °C | I/C(=C/C=C(/I)SCc1ccccc1)SCc1ccccc1
175 to 177 °C | CN1CCC(C2(O)c3ccccc3CCn3cccc32)CC1 (stereo unspecified)
150 to 152 °C | CC1(C)OC(=O)C(Oc2ccc3sccc3c2)=C1c1ccc(S(C)(=O)=O)cc1

melting point | Compound
60 to 62 °C | COC(=O)C1=CC(=O)C(C)(c2ccccc2)O1 (stereo unspecified)
196 to 197 °C | CCn1cc(C(=O)NCc2ccc(Cl)cc2)c(=O)c2cc(Br)sc21
242 to 245 °C | Cn1c2c(c3cccc(-c4ccccc4)c31)C(=O)NCC2
123 to 124 °C | COc1ccc2c(c1)NC1(CCN(Cc3ccccc3)CC1)c1cccn1-2
127 to 128 °C | CC(=O)Nc1cccc(C(=O)N[C@@H](C)C(=O)N2CCC[C@H]2C(=O)O)c1C(=O)O
123 to 124 °C | CCOc1nn(Cc2cc(OCc3ccc4ccccc4n3)no2)cc1CCC(=O)O
52 to 54 °C | Oc1ccccc1-n1cccc1
194 to 197 °C | Cc1cc(C)c(N2c3ccccc3S(=O)(=O)c3cc(C=O)ccc32)c(C)c1
216 °C | N#Cc1c(N2CCN(C(=O)c3ccco3)CC2)c2cc(F)cnc2n(Cc2ccccc2)c1=O
161 to 162 °C | Cc1oc(-c2ccccc2)nc1COc1ccc(CON=C(CCC(=O)O)c2ccncc2)cc1
227 °C | CC(CNc1c(C(=O)O)cccc1[N+](=O)[O-])NCc1ccccc1 (stereo unspecified)
153 °C | COc1ccc(C(=O)c2c(-c3ccccc3)oc3ccc([N+](=O)[O-])cc23)cc1
99 °C | COC(=O)C(O)C(NCc1ccccc1)c1ccccc1 (stereo unspecified)
105 to 107 °C | Cn1nc2ccccc2c1C(=O)NCCN1CCC(c2ccc(F)cc2)CC1
145 °C | O=C(O)COc1cccc2c1CCCC2CCOC(=O)N(c1ccccc1)c1ccccc1 (stereo unspecified)
132 to 133 °C | Cn1nc(Cl)n(-c2ccccc2CBr)c1=O
99 to 100 °C | Cc1ccc(C(=O)SCC2C(=O)OCC2c2ccc(Cl)cc2)cc1 (stereo unspecified)
234 to 235 °C | O=c1c(CCCc2cccnn2)cc2cccnc2n1-c1cccc([N+](=O)[O-])c1
76 to 80 °C | COC(=O)C1=C(C)NC(C)=C(C(=O)OCCN2CCN(C(c3ccc(OC)cc3)c3ccc(OC)cc3)CC2)C1c1cccc([N+](=O)[O-])c1 (stereo unspecified)
158 to 160 °C | O=C(NCc1ccco1)Nc1cc(N2CC(c3ccccc3)CC2=O)ccn1 (stereo unspecified)
